This assay addresses human TLR2 (Homo sapiens (Human), UniProt O60603). As to the kind of experiment: human TLR2-specific NF-κB reporter gene assay (HEK-Blue cells). It counts as cell-based. As to conditions: for absolute magnitude of TLR2-induced NF-κB activation: hTLR2, FIG. 1. An excerpt:
The induction of NF-κB in a TLR2-specific reporter gene assay was quantified using HEK-BLUE™ cells as previously described (Wu, W. et al., J. Med. Chem. 2010, 53, 3198-3213). HEK293 cells stably transfected with either human TLR2 or murine TLR2 and alkaline phosphatase (sAP) were obtained from InvivoGen (San Diego, Calif.), and were maintained in HEK-BLUE™ Selection medium containing zeocin and normocin. Stable expression of secreted alkaline phosphatase (sAP) under control of NF-κB promoters is inducible by TLR2 agonists, and extracellular sAP in the supernatant is proportional to NF-κB induction. HEK-Blue cells were incubated at a density of ˜10^5 cells/mL in a volume of 80 μL/well, in 384-well, flat-bottomed, cell culture-treated microtiter plates until confluency was achieved, and then stimulated with serially-diluted aliquots of compounds for 12 h. sAP was assayed spectrophoto-metrically using an alkaline phosphatase-specific chromogen (present in the HEK-detection medium as supplied by the vendor) at 620 nm. For antagonism assays, HEK-Blue cells were incubated at a density of ˜10^5 cells/mL in a volume of 80 μL/well and stimulated with either PAM2CS (1 μg/mL) or lipoteichoic acid (1 μg/mL) in the presence of graded concentrations of the test compounds as described for TLR7 previously (Shukla, N. M.; et al., Bioorg. Med. Chem. Lett. 2009, 19, 2211-2214; Shukla, N. M. et al., Bioorg. Med. Chem. 2011, 19, 3801-3811).

The mark [1] stands for this setting: human TLR2-specific reporter gene assay, ND = no activity detected at 10 μM, read-out: TLR2-Agonistic Activity (EC50 in nM).

Where two headings read alike, the source gives them in different places.

human TLR2, sequence (O60603 21-784): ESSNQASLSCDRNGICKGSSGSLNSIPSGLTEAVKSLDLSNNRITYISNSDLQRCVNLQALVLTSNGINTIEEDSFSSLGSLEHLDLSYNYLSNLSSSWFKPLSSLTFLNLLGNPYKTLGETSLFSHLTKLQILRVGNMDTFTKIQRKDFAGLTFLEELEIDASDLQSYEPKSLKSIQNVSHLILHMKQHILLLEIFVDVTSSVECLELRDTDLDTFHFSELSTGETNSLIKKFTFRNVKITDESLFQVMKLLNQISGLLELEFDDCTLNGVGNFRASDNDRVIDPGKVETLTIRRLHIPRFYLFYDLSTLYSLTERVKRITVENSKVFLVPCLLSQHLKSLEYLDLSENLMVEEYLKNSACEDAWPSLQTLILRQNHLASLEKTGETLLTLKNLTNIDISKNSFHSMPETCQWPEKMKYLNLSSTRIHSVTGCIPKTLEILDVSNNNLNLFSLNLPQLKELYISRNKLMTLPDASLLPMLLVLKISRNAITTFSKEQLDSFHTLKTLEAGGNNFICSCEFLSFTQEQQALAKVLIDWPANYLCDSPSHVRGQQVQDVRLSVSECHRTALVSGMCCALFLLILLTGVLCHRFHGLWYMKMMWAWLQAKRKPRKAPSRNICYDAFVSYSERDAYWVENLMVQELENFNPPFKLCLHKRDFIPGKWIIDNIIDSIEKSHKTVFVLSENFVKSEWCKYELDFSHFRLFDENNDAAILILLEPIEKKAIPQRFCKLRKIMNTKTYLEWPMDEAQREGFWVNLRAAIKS

As for `CCCC(=O)OCCSC[C@H](N)C(=O)N[C@@H](CO)C(=O)OC` [Compound 6a, 2-(((R)-2-Amino-3-(((S)-3-Hydroxy-1-Methoxy-1-oxopropan-2-yl)amino)-3-oxopropyl)thio)ethyl butyrate], the EC50 (usually the concentration at which the effect is half-maximal) under setting [1] was > 10000 nM. In the case of `CCCCCCCC(=O)OCCSC[C@H](N)C(=O)N[C@@H](CO)C(=O)OC` [Compound 6b, 2-(((R)-2-amino-3-(((S)-3-hydroxy-1-methoxy-1-oxopropan-2-yl)amino)-3-oxopropyl)thio)ethyl octanoate], under setting [1], the EC50 was > 10000 nM. `CCCCCCCCCCCC(=O)OCCSC[C@H](N)C(=O)N[C@@H](CO)C(=O)OC` [Compound 6c, 2-(((R)-2-amino-3-(((S)-3-hydroxy-1-methoxy-1-oxopropan-2-yl)amino)-3-oxopropyl)thio)ethyl dodecanoate]: the EC50 under setting [1] is > 10000 nM. With `COC(=O)[C@H](CO)NC(=O)[C@@H](N)CSCCOC(=O)c1ccc(-c2ccccc2)cc1` [Compound 6f, 2-(((R)-2-amino-3-(((S)-3-hydroxy-1-methoxy-1-oxopropan-2-yl)amino)-3-oxopropyl)thio)ethyl[1,1′-biphenyl]-4-carboxylate], the “hTLR2-agonistic activity in words” value (hTLR2 reporter gene assay) is on record as “complete absence of activity”. For the same compound, the EC50 under setting [1] was > 10000 nM.

On to `COC(=O)[C@H](CO)NC(=O)[C@@H](N)CSCCOC(=O)c1cccc(-c2ccccc2)c1` [Compound 6g, 2-(((R)-2-amino-3-(((S)-3-hydroxy-1-methoxy-1-oxopropan-2-yl)amino)-3-oxopropyl)thio)ethyl[1,1′-biphenyl]-3-carboxylate], for which the “hTLR2-agonistic activity in words” value (hTLR2 reporter gene assay) was “complete absence of activity”. In addition, the EC50 under setting [1] was > 10000 nM. With `COC(=O)[C@H](CO)NC(=O)[C@@H](N)CSCCOC(=O)c1ccc(-c2ccc(-c3ccccc3)cc2)cc1` [Compound 6h], the “hTLR2-agonistic activity in words” value (hTLR2 reporter gene assay) is “complete absence of activity”. Regarding `CCCCCCCCCCCCCCN(CCCCCCCCCCCCCC)CC(=O)OCCSC[C@H](N)C(=O)N[C@@H](CO)C(=O)OC` [Compound 10a, (S)-methyl 2-((R)-2-amino-3-((2-(2-(ditetradecylamino)acetoxy)ethyl)thio)propan-amido)-3-hydroxypropanoate], the “hTLR2-agonistic activity in words” value (hTLR2 reporter gene assay) is “completely inactive”. In addition, the concentration for a half-maximal effect (EC50) under setting [1] is > 10000 nM.

`CCCCCCCCCCCCCCNCC(=O)OCCSC[C@H](N)C(=O)N[C@@H](CO)C(=O)OC` [Compound 10b, (S)-methyl 2-((R)-2-amino-3-((2-(2-(tetradecylamino)acetoxy)ethyl)thio)propanamido)-3-hydroxypropanoate]: the “hTLR2-agonistic activity in words” value (hTLR2 reporter gene assay) is “completely inactive”. The EC50 under setting [1] was > 10000 nM.

For the compound `CCCCCCCCCCCCCCCC(=O)OCCSC[C@H](NCC)C(=O)N[C@@H](CO)C(=O)OC` [Compound 11a, 2-(((R)-2-(ethylamino)-3-(((S)-3-hydroxy-1-methoxy-1-oxopropan-2-yl)amino)-3-oxopropyl)thio)ethyl palmitate], the “hTLR2-agonistic activity in words” value (hTLR2 reporter gene assay) is “inactive”. Further, the EC50 under setting [1] was > 10000 nM. As to `CCCCCCCCCCCCCCCC(=O)OCCSC[C@H](NCCCCCCCC)C(=O)N[C@@H](CO)C(=O)OC` [Compound 11b, 2-(((R)-3-(((S)-3-hydroxy-1-methoxy-1-oxopropan-2-yl)amino)-2-(octylamino)-3-oxopropyl)thio)ethyl palmitate], for the setting “hTLR2 reporter gene assay”, the “hTLR2-agonistic activity in words” value is “inactive”. In addition, the concentration for a half-maximal effect (EC50) under setting [1] is > 10000 nM. On to `CCCCCCCCCCCCCCCCN[C@@H](CSCCOC(=O)CCCCCCCCCCCCCCC)C(=O)N[C@@H](CO)C(=O)OC` [Compound 11c, 2-(((R)-2-(hexadecylamino)-3-(((S)-3-hydroxy-1-methoxy-1-oxopropan-2-yl)amino)-3-oxopropyl)thio)ethyl palmitate], for which, under “hTLR2 reporter gene assay”, the “hTLR2-agonistic activity in words” value is “inactive”. For the same compound, under setting [1], the EC50 is > 10000 nM. As for `CCCCCCCCCCCCCCCC(=O)OCCSC[C@H](NC(C)=O)C(=O)N[C@@H](CO)C(=O)OC` [Compound 11d, 2-(((R)-2-acetamido-3-(((S)-3-hydroxy-1-methoxy-1-oxopropan-2-yl)amino)-3-oxopropyl)thio)ethyl palmitate], the “absolute magnitude of TLR2-induced NF-κB activation” value is listed as “far greater”. Besides, the EC50 under setting [1] turned out to be 1.01 nM. On to `CCCCCCCCCCCCCCCC(=O)OCCSC[C@H](NC(=O)CCC)C(=O)N[C@@H](CO)C(=O)OC` [Compound 11e, 2-(((R)-2-butyramido-3-(((S)-3-hydroxy-1-methoxy-1-oxopropan-2-yl)amino)-3-oxopropyl)thio)ethyl palmitate], for which the EC50 under setting [1] was 1.64 nM.

Regarding `CCCCCCCCCCCCCCCC(=O)OCCSC[C@H](NC(=O)CCCCCCC)C(=O)N[C@@H](CO)C(=O)OC` [Compound 11f, 2-(((R)-3-(((S)-3-hydroxy-1-methoxy-1-oxopropan-2-yl)amino)-2-octanamido-3-oxopropyl)thio)ethyl palmitate], the EC50 under setting [1] turned out to be 3.8 nM. As to `CCCCCCCCCCCCCCCC(=O)N[C@@H](CSCCOC(=O)CCCCCCCCCCCCCCC)C(=O)N[C@@H](CO)C(=O)OC` [Compound 11g, 2-(((R)-3-(((S)-3-hydroxy-1-methoxy-1-oxopropan-2-yl)amino)-3-oxo-2-palmitamidopropyl)thio)ethyl palmitate], where the note is “hTLR2 reporter gene assay”, the “hTLR2-agonistic activity in words” value is listed as “complete loss of activity”. In addition, the EC50 under setting [1] is > 10000 nM. Consider `CCCCCCCCCCCCCCCC(=O)OCCSC[C@H](NC(=O)C(F)(F)F)C(=O)N[C@@H](CO)C(=O)OC` [Compound 11h, 2-(((R)-3-(((S)-3-hydroxy-1-methoxy-1-oxopropan-2-yl)amino)-3-oxo-2-(2,2,2-trifluoro-acetamido)propyl)thio)ethyl palmitate], for which the “absolute magnitude of TLR2-induced NF-κB activation” value was “low magnitude”. The EC50 (hTLR2 reporter gene assay, read-out: EC50 in engaging hTLR2) came to 4.5 nM. As to `CCCCCCCCCCCCCCCC(=O)OCCSC[C@H](NC(=O)C(Cl)(Cl)Cl)C(=O)N[C@@H](CO)C(=O)OC` [Compound 11i, 2-(((R)-3-(((S)-3-hydroxy-1-methoxy-1-oxopropan-2-yl)amino)-3-oxo-2-(2,2,2-trichloroacetamido)propyl)thio)ethyl palmitate], the “hTLR2-agonistic activity in words” value (hTLR2 reporter gene assay) is “inactive”. Further, the EC50 under setting [1] was > 10000 nM. Taken in the same sequence, the figures for `CCCCCCCCCCCCCCCC(=O)OCCSC[C@H](NS(C)(=O)=O)C(=O)N[C@@H](CO)C(=O)OC` [Compound 11j, 2-(((R)-3-(((S)-3-hydroxy-1-methoxy-1-oxopropan-2-yl)amino)-2-(methylsulfonamido)-3-oxo-propyl)thio)ethyl palmitate] were “inactive” and > 10000 nM. On to `CCCCCCCCCCCCCCCC(=O)OCCSC[C@H](NS(=O)(=O)C(F)(F)F)C(=O)N[C@@H](CO)C(=O)OC` [Compound 11k, 2-(((R)-3-(((S)-3-hydroxy-1-methoxy-1-oxopropan-2-yl)amino)-3-oxo-2-(trifluoromethyl-sulfonamido)propyl)thio)ethyl palmitate], for which the “hTLR2-agonistic activity in words” value (hTLR2 reporter gene assay) is “inactive”. Under setting [1], the EC50 was > 10000 nM.

Take `CCCCCCCCCCCCCCCC(=O)OCCSC[C@H](NS(=O)(=O)c1ccc(C)cc1)C(=O)N[C@@H](CO)C(=O)OC` [Compound 11l, 2-(((R)-3-(((S)-3-hydroxy-1-methoxy-1-oxopropan-2-yl)amino)-2-(4-methylphenylsulfonamido)-3-oxopropyl)thio)ethyl palmitate]: the “hTLR2-agonistic activity in words” value (hTLR2 reporter gene assay) is “inactive”. The 50% effective concentration (EC50) under setting [1] was > 10000 nM. For the compound `CCCCCCCCCCCCCCCC(=O)OCCSC[C@H](N)C(=O)N[C@@H](COC(C)=O)C(=O)OC` [Compound 14a, 2-(((R)-3-(((S)-3-acetoxy-1-methoxy-1-oxopropan-2-yl)amino)-2-amino-3-oxopropyl)thio)ethyl palmitate], the “hTLR2-agonistic activity in words” value (hTLR2 reporter gene assay) was “virtually indistinguishable from that of 6d”. Moreover, the EC50 under setting [1] is 2.97 nM. Regarding `CCCCCCCCCCCCCCCC(=O)OCCSC[C@H](N)C(=O)N[C@@H](COC(=O)CCC)C(=O)OC` [Compound 14b, 2-(((R)-2-amino-3-(((S)-3-(butyryloxy)-1-methoxy-1-oxopropan-2-yl)amino)-3-oxopropyl)thio)ethyl palmitate], under setting [1], the EC50 is 5.47 nM. `CCCCCCCCCCCCCCCC(=O)OCCSC[C@H](N)C(=O)N[C@@H](COC(=O)CCCCCCCCCCCCCCC)C(=O)OC` [Compound 14c, 2-(((R)-2-amino-3-(((S)-1-methoxy-1-oxo-3-(palmitoyloxy)propan-2-yl)amino)-3-oxopropyl)thio)ethyl palmitate]: the EC50 under setting [1] came out at 5.95 nM. With `CCCCCCCCCCCCCCCC(=O)OCCCSC[C@H](N)C(=O)N[C@@H](CO)C(=O)OC` [Compound 15, 3-((R)-2-amino-3-((S)-3-hydroxy-1-methoxy-1-oxopropan-2-ylamino)-3-oxopropylthio)propyl palmitate], the “hTLR2-agonistic activity in words” value (hTLR2 reporter gene assay) is “inactive”. Under setting [1], the EC50 is > 10000 nM.

The record behind these values is patent US9676818B2, “Toll-like receptor 2-agonistic lipopeptides, and method of making the same” (University of Kansas, priority 2013, dated 2017).
